# Key:
# [1] = test system: patient addicted to narcotics; test: Clinical treatment of acute and severe diarrhea accompanying rapid narcotic detoxification (acute withdrawal); assay type: in vivo, human; settings: parenteral, about 0.025 mg to about 0.1 mg octreotide, preferably about 0.0007 mg/kg, before nalmefene
# Method: A medication to induce unconsciousness is administered, preferably by the intravenous route, in doses appropriate for the patient's weight and medical condition. This medication should be a non-opioid derivative not related to the narcotic classification of drugs, such as midazolam, propofol, sodium pentothal, a combination thereof, or other drugs commonly used to induce unconsciousness. As a specific example, a dose of 0.3 milligrams of midazolam per kilogram of body weight administered intravenously is usually sufficient to produce unconsciousness.
# After octreotide and glycopyrrolate have been administered and the patient's vital signs are stable, nalmefene is administered parenterally, preferably by intravenous route. For a 70 kilogram adult patient, the typical initial dose of parenteral nalmefene is from about 0.5-1.5 mg to no more than about 1.5-2.0 of nalmefene. The dosage is adjusted proportionally based on the weight of the patient, and the rate of administration of nalmefene may be titrated upward or downward depending on the response of the patient's sympathetic nervous system as evidence by monitoring of life functions and other clinical criteria. Some time thereafter, usually no more than four hours after said administration of nalmefene is complete, the patient can be expected to be detoxified and can be safely rendered back to a state of consciousness. […]
# [2] = test system: patient addicted to narcotics; test: Clinical tolerability (bradycardia, abdominal distention) of octreotide during rapid narcotic detoxification; settings: parenteral
# Description: A patient addicted to narcotics undergoes intravenous cannulation by either the peripheral or central venous route, and the appropriate intravenous solution is infused intravenously at the required rate for the size and conditions of the patient. Monitors of life function are attached to the patient which may include a pulse oximeter, electrocardiogram patches, a blood pressure cuff attached to a sphygmomanometer and a means to measure the carbon dioxide of the patient's exhaled breath by way of capnography.
# This is typically followed by intravenous administration of a medication such as a depolarizing or non-depolarizing neuromuscular blocking agent to facilitate intubation of the patient's trachea. The endotracheal tube is then secured in the correct anatomic position using usual anesthetic care measures. After stabilization of the patient's life functions as usually done in routine anesthetic management, the patient is administered parenterally about 0.025 mg to about 0.1 mg octreotide, preferably about 0.0007 mg/kg of body weight.
# As noted previously, glycopyrrolate is preferred and is administered parenterally with the octreotide in an amount ranging from about 0.2 mg to above 0.4 mg glycopyrrolate. However, from about 0.2 mg to about 0.4 mg atropine administered parenterally is also effective.
# [3] = test system: patient addicted to narcotics; settings: background statement, prior practice, dose not given; cited from earlier work
# [4] = test system: patient addicted to narcotics; settings: background statement, prior practice, dose not given; cited from earlier work; remark: listed apart in the source
substance,measurement,setting,value
octreotide,prevention of acute and severe diarrhea accompanying acute detoxification,[1],sufficient to prevent the acute and severe diarrhea
same,bradycardia in the post-detoxification period,[2]; about 0.025 mg to about 0.05 mg octreotide every 12 hours,without causing significant bradycardia
same,bradycardia,"[2]; about 0.025 mg to about 0.1 mg octreotide, preferably about 0.0007 mg/kg",does not precipitate significant bradycardia
same,abdominal distention,"[2]; about 0.025 mg to about 0.1 mg octreotide, distention frequently observed at higher dosage levels",does not result in the abdominal distention
same,incidence of bradycardia,[3],unacceptable incidence of bradycardia
same,treating clinically significant diarrhea during rapid detoxification,[4],proven effective
